Experimental data taken from ChEMBL document CHEMBL1275325, “QSAR guided synthesis of simplified antiplasmodial analogs of naphthylisoquinoline alkaloids” (Eur J Med Chem, 2010).

Assays:
Leishmania donovani = experiment: Antileishmanial activity against axenic amastigotes of Leishmania donovani; type: functional, organism-based
Leishmania major = experiment: Antileishmanial activity against promastigotes of Leishmania major; type: functional, organism-based
Trypanosoma cruzi = experiment: Antitrypanosomal activity against clone C4 Trypanosoma cruzi Tulahuen expressing LacZ; type: functional, organism-based
Plasmodium falciparum = experiment: Antiplasmodial activity against Plasmodium falciparum K1; type: functional, organism-based
[1] = Selectivity index, ratio of IC50 for rat L6 cells to IC50 for Plasmodium falciparum K1; type: toxicity, cell-based; conditions: read-out: Ratio IC50
[2] = tested on: Trypanosoma brucei rhodesiense; experiment: Antitrypanosomal activity against Trypanosoma brucei rhodesiense STIB900; type: functional, organism-based
L6 = experiment: Cytotoxicity against rat L6 cells; type: cell-based
[3] = tested on: Trypanosoma brucei brucei; experiment: Antitrypanosomal activity against Trypanosoma brucei brucei; type: functional, organism-based
[4] = Leishmania major, read-out: IC50
[5] = Trypanosoma brucei, read-out: IC50
[6] = Leishmania donovani, read-out: IC50
[7] = Trypanosoma cruzi, Tulahuen, read-out: IC50
[8] = Trypanosoma brucei, STIB900, read-out: IC50

Structure (SMILES) | IC50 (Leishmania donovani) | IC50 (Leishmania major; [4]) | IC50 (Trypanosoma cruzi) | IC50 (Plasmodium falciparum) | IC50 [2] | IC50 [3, 5] | IC50 (Leishmania major) | IC50 [3] | IC50 (Leishmania donovani; [6]) | IC50 (Trypanosoma cruzi; [7]) | IC50 [2, 8] | selectivity ratio [1] | IC50 (L6)
COc1ccc(Br)c2c1C(C)=N[C@H](C)C2 | – | – | – | > 18.9 µM | – | – | Not Active | Not Active | > 100 µM | > 100 µM | > 100 µM | – | > 100 µM
COc1ccc(-c2ccccc2)c2c1C(C)=N[C@H](C)C2 | – | > 100 µM | – | 1.88 µM | – | 14.8 µM | – | – | 74.9 µM | 46.7 µM | 6.48 µM | – | 58.8 µM
CC1=N[C@H](C)Cc2c(-c3ccc(O)cc3)ccc(O)c21 | – | – | – | 9.91 µM | – | – | Not Active | Not Active | > 100 µM | > 100 µM | 53.5 µM | – | > 100 µM
CC1=N[C@H](C)Cc2c(-c3cccc(Cl)c3)ccc(O)c21 | – | 52.4 µM | – | 0.856 µM | – | 27.1 µM | – | – | 24.7 µM | 13.9 µM | 7.63 µM | – | 50.8 µM
COc1ccc(-c2cccc(Cl)c2)c2c1C(C)=N[C@H](C)C2 | – | – | – | 7.96 µM | – | – | Not Active | Not Active | 13 µM | 14 µM | 1.18 µM | – | 38.4 µM
COc1ccc(-c2cccc3ccccc23)c2c1C(C)=N[C@H](C)C2 | – | – | – | 6.91 µM | – | – | Not Active | Not Active | 14.4 µM | 15.9 µM | 3.96 µM | – | 34.9 µM
COc1ccc(-c2ccc3ccccc3c2)c2c1C(C)=N[C@H](C)C2 | – | 28.1 µM | – | 1.18 µM | – | 10.1 µM | – | – | 21.2 µM | 20.9 µM | 4.44 µM | – | 72 µM
COc1cccc2c(-c3ccc(O)c4c3CCN=C4)ccc(O)c12 | Not Active | – | Not Active | 1.99 µM | Not Active | – | Not Active | Not Active | – | – | – | – | 98.2 µM
COc1cccc2c(-c3ccc(O)c4c3CC(C)(C)NC4)ccc(O)c12 | Not Active | – | Not Active | 0.223 µM | – | – | Not Active | Not Active | – | – | 2.92 µM | 168 | 37.5 µM
COc1cccc2c(-c3ccc(O)c4c3CCNC4)ccc(O)c12 | Not Active | – | Not Active | 0.264 µM | – | – | Not Active | Not Active | – | – | 2.48 µM | 152 | 40.2 µM
COc1ccc(-c2ccc(C)cc2)c2c1C(C)=N[C@H](C)C2 | – | > 83 µM | – | 2.49 µM | – | 20.2 µM | – | – | 35.5 µM | 19.3 µM | 5.83 µM | – | > 100 µM
COc1ccc(-c2ccc(Cl)cc2)c2c1C(C)=N[C@H](C)C2 | – | – | – | 6.44 µM | – | – | Not Active | Not Active | 15.9 µM | 15 µM | 7.81 µM | – | 56.7 µM
COc1ccc(-c2ccc(C(F)(F)F)cc2)c2c1C(C)=N[C@H](C)C2 | – | > 100 µM | – | 3 µM | – | 10.4 µM | – | – | 18.3 µM | > 100 µM | 7.38 µM | – | > 100 µM
C[C@@H]1[C@H](O)[C@@H](C)/C=C/C=C/C=C/C=C/C=C/C=C/C=C/[C@H](O[C@@H]2O[C@H](C)[C@@H](O)[C@H](N)[C@@H]2O)C[C@@H]2O[C@](O)(C[C@@H](O)C[C@@H](O)[C@H](O)CC[C@@H](O)C[C@@H](O)CC(=O)O[C@H]1C)C[C@H](O)[C@H]2C(=O)O [AMPHOTERICIN B] | – | 2.51 µM | – | – | – | – | – | – | – | – | – | – | –
O=C(Cn1ccnc1[N+](=O)[O-])NCc1ccccc1 [BENZNIDAZOLE] | – | – | – | – | – | – | – | – | – | 1.98 µM | – | – | –
Nc1nc(N)nc(Nc2ccc([As]3SCC(CO)S3)cc2)n1 (stereo not given) [MELARSOPROL] | – | – | – | – | – | – | – | – | – | – | 0.007 µM | – | –
N=C(N)c1ccc(OCCCCCOc2ccc(C(=N)N)cc2)cc1 [PENTAMIDINE] | – | – | – | – | – | 0.003 µM | – | – | – | – | – | – | –

Further compounds by falling IC50 (Plasmodium falciparum), results first:

IC50 (Leishmania donovani) | IC50 (Leishmania major; [4]) | IC50 (Trypanosoma cruzi) | IC50 (Plasmodium falciparum) | IC50 [2] | IC50 [3, 5] | IC50 (Leishmania major) | IC50 [3] | IC50 (Leishmania donovani; [6]) | IC50 (Trypanosoma cruzi; [7]) | IC50 [2, 8] | Structure (SMILES) | selectivity ratio [1] | IC50 (L6)
– | – | – | 10.8 µM | – | – | Not Active | Not Active | 21.4 µM | 25.5 µM | 4.77 µM | COc1ccc(-c2ccc(O)cc2)c2c1C(C)=N[C@H](C)C2 | – | > 100 µM
Not Active | – | Not Active | 3.49 µM | Not Active | – | Not Active | Not Active | – | – | – | Oc1ccc(-c2ccc(O)c3ccccc23)c2c1C=NCC2 | – | 94.2 µM
– | 37.2 µM | Not Active | 2.4 µM | Not Active | 30.4 µM | – | – | 1.95 µM | – | – | COc1ccc(-c2ccc(OC)c3ccccc23)c2c1C=NC(C)(C)C2 | – | 43.8 µM
Not Active | 46.3 µM | – | 1.7 µM | Not Active | 26.3 µM | – | – | – | 10.9 µM | – | COc1ccc(-c2ccc(OC)c3ccccc23)c2c1C=NCC2 | – | 34.3 µM
Not Active | > 100 µM | Not Active | 1.7 µM | Not Active | 34.1 µM | – | – | – | – | – | COc1cccc2c(-c3ccc(O)c4c3CC(C)(C)N=C4)ccc(O)c12 | – | > 100 µM
Not Active | – | Not Active | 1.24 µM | Not Active | – | Not Active | Not Active | – | – | – | Oc1ccc(Br)c2c1C=NCC2 | – | > 100 µM
– | > 100 µM | – | 0.82 µM | – | 13.4 µM | – | – | > 100 µM | 57.1 µM | 4.74 µM | CC1=N[C@H](C)Cc2c(-c3ccccc3)ccc(O)c21 | – | 52.2 µM
– | 13.4 µM | – | 0.763 µM | – | 2.74 µM | – | – | 27.1 µM | 15.8 µM | 11.1 µM | CC1=N[C@H](C)Cc2c(-c3cccc4ccccc34)ccc(O)c21 | – | 57.1 µM
Not Active | > 100 µM | Not Active | 0.708 µM | Not Active | > 100 µM | – | – | – | – | – | CC1(C)Cc2c(Br)ccc(O)c2C=N1 | > 141 | > 100 µM
Not Active | > 100 µM | Not Active | 0.532 µM | Not Active | > 40 µM | – | – | – | – | – | CC1=N[C@H](C)Cc2c(-c3ccc(Cl)cc3)ccc(O)c21 | > 188 | > 100 µM
Not Active | – | Not Active | 0.138 µM | Not Active | – | Not Active | Not Active | – | – | – | COc1cccc2c(-c3ccc(O)c4c3CC(C)(C)N=C4)ccc(OC(C)C)c12 | > 725 | > 100 µM
Not Active | – | Not Active | 0.119 µM | Not Active | – | Not Active | Not Active | – | – | – | COc1cccc2c(-c3ccc(O)c4c3CCN=C4)ccc(OC(C)C)c12 | 227 | 27 µM
